Reference: patent publication US20030157491A1, “HarA polypeptides and nucleic acids, and related methods and uses thereof” (priority 2002, published 2003)
Values after ≈ are worked out from the molar mass of the structure shown.

How the values were obtained:
EF1 (harA::erm) = experiment: MIC by broth microdilution, E. faecalis OG1X harA disruption mutant; format: cell-based, Enterococcus faecalis; settings: for decrease in the MIC when the harA gene is disrupted: E. faecalis OG1X; for susceptibility of strain OG1X harA::erm: E. faecalis harA::erm knockout strain; for MIC: EF1 (harA::erm), disruption mutant, broth microdilution, duplicate
Description: A PCR product corresponding to an internal segment of the E. faecalis harA gene was generated to obtain pVA891 -expZ by using the E. coli vector pVA891, which carries an ERM determinant that expresses in E. coli and E. faecalis. Briefly, internal harA primers were used (sense: 5′-[…]-3′-SEQ ID NO: 5); (antisense: 5′-[…]-3′-SEQ ID NO: 6) with E. faecalis genomic template DNA to generate a 665 bp PCR product. PCR-generated fragments were purified using the QIAquick PCR purification kit and cloned into the T-A cloning plasmid pGem-T Easy. The fragment was subsequently excised using EcoRI, gel purified using the S&S Elu-Quik kit, and cloned into the EcoRI site of pVA891. The ligation was transformed in E. coli DH5α with selection for erythromycin resistance (200 μg/mL); resulting in pVA891-expZ. The plasmid pVA891-expz was introduced by electroporation into E. faecalis OG1X (hygromycin resistant), where integrants occurring via homologous recombination were selected using erythromycin (20 μg/mL). The harA::erm knockout strain was confirmed by PCR and designated “OG1X harA::erm.” Strain OG1X harA::erm was hypersensitive to nonpolar hygromycin A analogues, lankacidin, virginiamycin and Synercid®. Revertants (i.e., resistant strains) could be obtained by growing for several generations in the absence of erythromycin and identified by screening for resistance to hygromycin A and sensitivity to erythromycin. Strain OG1X harA::erm was deposited with the ATCC on Sep. 26, 2000, and was accorded Accession No. PTA-2550.
(§1) Quantitative assessment of resistance was performed by a broth microdilution method using cation-supplemented Mueller-Hinton broth containing antibiotics, the concentration of which varied in two-fold increments.
(§2) Preferably, the microdilution assay is performed using cation-adjusted Mueller-Hinton broth according to NCCLS (National Committee for Clinical Laboratory Standards) guideline M31 -A, Vol. 19, No. 11, “Performance standards for antimicrobial disk and dilution susceptibility tests for bacteria isolated from animals,” June 1999 (ISBN 1-56238-377-9), which is herein incorporated by reference.
(§3) To confirm the role of expZ in conferring resistance to hygromycin A analogues and other compounds, applicants examined the effect of B. subtilis and E. faecalis expZ expression and disruption on antibiotic resistance patterns. […] Also shown in Table 1 is the conferral of the “harA” phenotype on the normally drug-sensitive S. aureus RN4220 strain by transformation with a pMP plasmid containing B. subtilis harA.

SA1 (pMP20 Bs_harA+) = experiment: MIC by broth microdilution, S. aureus RN4220 with vector carrying B. subtilis harA; format: cell-based, Staphylococcus aureus; settings: for increase in the MIC: sensitive S. aureus strain compared to same strain transformed with and expressing harA
Experimental: (§4) To identify genes whose products might be important in establishing the intrinsic level of resistance to hygromycins, applicants screened a recombinant library of B. subtilis chromosomal DNA segments cloned into the E. coli-S. aureus shuttle vector pMP20 for S. aureus transformants with increased levels of resistance to a hygromycin analogue, as follows:
(§5) Chromosomal DNA was extracted from a 100 mL culture of B. subtilis strain JH642 grown in L both, partially digested with Sau3A and fractionated by electrophoresis in a 1% agarose gel. A fraction corresponding in size to 2-4 kb was purified and used for ligation with pMP20 that had been digested with BamHI and dephosphorylated with alkaline phosphatase. Ligated DNA was used to transform E. coli DH5α by electroporation, with selection for ampicillin resistance. Transformant colonies were pooled; the plasmid DNA mixture was extracted and used to transform S. aureus RN4220 by electroporation with selection on plates containing erythromycin (2 μg/mL) and 2 μg/mL of a nonpolar hygromycin A analogue, 3-(4-((2S,4S,5R)-5-(3-(2,4-dichloro-phenoxy)-1-methyl)-(1E)-propenyl)-4-hydroxy-tetrahydro-furan-2-yloxy)-3-hydroxy-phenyl)-2-methyl-N-((3aS,4R,5R,6S,7R,7aR)-4,6,7-trihydroxy-hexahydro-benzo(1,3)dioxol-5-yl)-(2E)-acrylamide, which is Example 68 of WO 00/32616 and referred to herein as “Compound 1”.
(§6) Vector-transformed S. aureus cells were sensitive to this level of Compound 1. Plasmid segregation and backcross experiments confirmed that plasmids harboring DNA segments from the B. subtilis chromosome conferred hygromycin A resistance in S. aureus. The MIC for Compound 1 was increased in these strains from ≦0.2 μg/mL for pMP20 transformants to 50 μg/mL for cells transformed with the recombinant plasmids.
as §1, §2, §3

[1] = system: E. faecalis OGX1 str gel ("EF1"); experiment: MIC by broth microdilution, wild-type resistant E. faecalis OG1X; format: cell-based, Enterococcus faecalis; settings: duplicate
Experimental: as §1, §2, §3

[2] = system: B. subtilis JH642 trpC2 pheA1 ("BS1"); experiment: MIC by broth microdilution, wild-type resistant B. subtilis JH642; format: cell-based, Bacillus subtilis; settings: duplicate
Experimental: as §1, §2, §3

S. aureus RN4220 ("SA1") = experiment: MIC by broth microdilution, wild-type sensitive S. aureus RN4220; format: cell-based, Staphylococcus aureus; settings: duplicate
Experimental: as §1, §2, §3

BS1 (harA::cat) = experiment: MIC by broth microdilution, B. subtilis JH642 harA disruption mutant; format: cell-based, Bacillus subtilis; settings: for susceptibility of strain JH642 expZ::CAT: B. subtilis harA::CAT insertion mutant; for MIC: BS1 (harA::cat), disruption mutant, broth microdilution, duplicate
Description: A B. subtilis strain expressing a harA::CAT insertion mutant was produced by single-crossover recombination using integrative plasmid pJPM1. Plasmid pJPM1 is a pSK^− derivative that carries the cat gene of S. aureus plasmid pC194 that confers chloramphenicol resistance in B. subtilis. […] However, if any DNA fragment providing a region of homology with the B. subtilis chromosome is inserted into this plasmid, it acquires the ability to transform B. subtilis competent cells to cat resistance at high frequency. The integration occurs via a Campbell-type (single crossover) recombination event that results in the duplication of the cloned region at either end of the vector. Reversal of the integration event leads to precise excision of the plasmid and restoration of gene structure on the chromosome. An internal fragment of the B. subtilis harA gene was excised using EcoRV and EcoRI and subcloned into compatible sites in pJPM1 creating plasmid pJPM1-expZ1. Plasmid pJPM1-expZ1 was used to transform the naturally competent B. subtilis strain JH642 (hygromycin-resistant) and transformants selected using chloramphenicol ([…]). A harA::CAT insertion mutant was confirmed by PCR and the strain was designated “JH642 expZ::CAT.” Strain JH642 expZ::CAT was hypersensitive to hygromycin analogues and other unrelated antibiotics including lankacidin and virginiamycin. Strain JH642 expZ::CAT was deposited with the ATCC on Sep. 26, 2000, and accorded Accession No. PTA-2480.
as §1, §2, §3

SA1 (pMP20) = experiment: MIC by broth microdilution, S. aureus RN4220 with vector only (pMP20); format: cell-based, Staphylococcus aureus
Experimental: as §4, §5, §6, §1, §2, §3

[3] = SA1 (pMP20 Bs_harA+), sensitive + vector with B. subtilis harA, broth microdilution, duplicate
[4] = SA1 (pMP20), wild-type, sensitive + vector only, broth microdilution, duplicate

Row | Molecule | decrease in the MIC when the harA gene is disrupted (EF1 (harA::erm)) | susceptibility of strain OG1X harA::erm (EF1 (harA::erm)) | MIC (EF1 (harA::erm)) | MIC (SA1 (pMP20 Bs_harA+); [3]) [µg/mL] | MIC [1] [µg/mL] | MIC [2] [µg/mL] | MIC (S. aureus RN4220 ("SA1")) | susceptibility of strain JH642 expZ::CAT (BS1 (harA::cat)) | MIC (BS1 (harA::cat)) | MIC (SA1 (pMP20); [4]) | MIC (SA1 (pMP20 Bs_harA+); S. aureus cells transformed with the recombinant plasmids carrying B. subtilis DNA segments) [µg/mL] | increase in the MIC (SA1 (pMP20 Bs_harA+)) | sensitivity of vector-transformed S. aureus cells on selection plates (SA1 (pMP20); 2 μg/mL of compound on plates) | MIC (SA1 (pMP20); S. aureus pMP20 transformants (library selection, text)) [µg/mL] | decrease in the MIC when the harA gene is disrupted (BS1 (harA::cat); B. subtilis JH642)
1 | Lankacidin | greater than 100 fold | hypersensitive | 0.39 µg/mL | >100 | >100 | >100 | 3.13 µg/mL | hypersensitive | 1.56 µg/mL |  |  |  |  |  | 
2 | C/C(=C\c1ccc(O[C@@H]2O[C@H](/C(C)=N/OCc3cccc(Cl)c3)[C@@H](O)[C@@H]2O)c(O)c1)C(=O)N[C@@H]1[C@H](O)[C@@H](O)[C@H]2OCO[C@H]2[C@@H]1O [Compound 3, 5-deoxy-5-[[3-[4-[(6-deoxy-β-D-arabino-hexofuranos-5-ulos-1-yl)oxy]-3-hydroxyphenyl]-2-methyl-1-oxo-2-(E)-propenyl]amino]-1,2-O-methylene-D-neo-inositol, (E)-O-[(3-chlorophenyl)methyl]oxime] |  |  | ≦0.2 μg/mL | >100 | 1.56 (≈ 2.4 µM) | >100 | 0.39 µg/mL (≈ 0.599 µM) |  | 0.78 µg/mL | 0.39 µg/mL |  |  |  |  | 
3 | C/C(=C\c1ccc(O[C@H]2C[C@H](O)[C@@H](/C(C)=C/COc3ccc(Cl)cc3Cl)O2)c(O)c1)C(=O)N[C@@H]1[C@H](O)[C@@H](O)[C@H]2OCO[C@H]2[C@@H]1O [Compound 1] |  |  | ≦0.2 μg/mL | 100 | 1.25 (≈ 1.87 µM) | 50 (≈ 74.8 µM) | ≦0.2 μg/mL |  | ≦0.2 μg/mL | ≦0.2 μg/mL | 50 | ~500 fold | sensitive | ≤ 0.2 | 
4 | CC1=C\[C@@H](O)CC(=O)Cc2nc(co2)C(=O)N2CCC=C2C(=O)O[C@H](C(C)C)[C@H](C)/C=C/C(=O)NC\C=C\1 [Virginiamycin A] |  | hypersensitive | 1.56 µg/mL | 50 | 25 (≈ 47.6 µM) | 25 (≈ 47.6 µM) | 0.78 µg/mL (≈ 1.48 µM) | hypersensitive | 0.78 µg/mL | 0.78 µg/mL |  |  |  |  | 
5 | 5-deoxy-5[4-[(2,6-dideoxy-β-D-erythro-hexofuranos-5-ulos-1-yl)oxy]-3-hydroxyphenyl]-2-methyl-1-oxo-2-(E)-propenyl]amino]-1,2-O-methylene-D-neo-inositol, (E)-O-[(3-chlorophenyl)methyl]oxime [Compound 2] | greater than 4 fold |  | ≦0.2 μg/mL | 50 | 1.25 | 100 | ≦0.2 μg/mL |  | 0.39 µg/mL | ≦0.2 μg/mL |  |  |  |  | 
6 | CC(=O)[C@H]1O[C@@H](Oc2ccc(/C=C(\C)C(=O)N[C@@H]3[C@H](O)[C@@H](O)[C@H]4OCO[C@H]4[C@@H]3O)cc2O)[C@@H](O)[C@@H]1O [Hygromycin A] |  |  | 7.8 µg/mL | 250 | 62.5 (≈ 122 µM) | 250 (≈ 489 µM) | 31.3 µg/mL (≈ 61.2 µM) |  | 15.6 µg/mL |  |  | about 8 fold |  |  | about 16 fold
